For the assay, the system named is peri-menopausal women experiencing at least 40-50 hot flushes per week.

Where a name gives a salt, the structure may show the parent alone.

Method: A clinical study is conducted with 12 peri-menopausal women experiencing at least 40-50 hot flushes per week.
The study is designed as a so called double blind, cross-over study. During the study the medication is orally administered once a day. The visual aspects of the medication used is always the same, i.e. these aspects offer no clues as to the nature of the medication. The volunteers are asked to record the number of hot flushes they experience in a dairy (at least 1 entry per day).
During an initial period of 56 days (days 1-56), all 12 participants receive the same medication, i.e. 20 mg Fluoxetine HCl. Subsequently, the twelve women are randomly divided into two groups, i.e. group A with six women and group B with six women.

Consider `CNCCC(Oc1ccc(C(F)(F)F)cc1)c1ccccc1` (stereo not drawn) [Fluoxetine HCl], for which, under “all 12 participants, 20 mg Fluoxetine HCl orally once a day, days 1-56”, the “number of hot flushes experienced per day” value is “decreases substantially over time”. Also, under “group A, 5mg Fluoxetine HCl + placebo orally once a day, days 169-281 (after the combination with vitamin B6)”, the “number of hot flushes” value is recorded as “increases again over time”. For the same compound, the “daily number of hot flushes experienced” value (group B, 5mg Fluoxetine HCl + placebo orally once a day, days 57-168 (after 20 mg Fluoxetine HCl)) was “increases over time”.
